Assays:
Type in all cases: biochemical
Human plasma kallikrein = Human plasma kallikrein (Homo sapiens (Human), UniProt P03952); test: Determination of the IC50 for plasma kallikrein (fluorogenic substrate H-DPro-Phe-Arg-AFC); details: 37° C., read-out: IC50 (human PKaI)
Method: Determination of the IC50 for Plasma Kallikrein
(§1) Human plasma kallikrein (Protogen) was incubated at 37° C. with the fluorogenic substrate H-DPro-Phe-Arg-AFC and various concentrations of the test compound. Residual enzyme activity (initial rate of reaction) was determined by measuring the change in […] at 410 nm and the IC50 value for the test compound was determined.

Human KLK1 = Human KLK1 (Homo sapiens (Human), UniProt P06870); test: Determination of the IC50 for KLK1 (fluorogenic substrate H-DVal-Leu-Arg-AFC); details: 37° C.
Human KLK1, sequence (P06870 25-262): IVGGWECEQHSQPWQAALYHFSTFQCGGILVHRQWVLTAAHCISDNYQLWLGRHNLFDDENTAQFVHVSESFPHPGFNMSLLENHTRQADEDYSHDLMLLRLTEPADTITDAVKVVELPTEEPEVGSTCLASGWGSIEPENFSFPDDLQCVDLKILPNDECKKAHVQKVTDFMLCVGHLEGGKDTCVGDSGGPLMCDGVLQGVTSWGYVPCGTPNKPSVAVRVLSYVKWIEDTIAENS
Method: Determination of the IC50 for KLK1
as §1, with “KLK1 (Callbiochem)” for “plasma kallikrein (Protogen)”, “H-DVal-Leu-Arg-AFC” for “H-DPro-Phe-Arg-AFC”

Factor XIIa = Factor XIIa (Homo sapiens (Human), UniProt P00748); test: Determination of enzyme selectivity, Factor XIIa; details: substrate at Km concentration
Factor XIIa, sequence (P00748 373-615): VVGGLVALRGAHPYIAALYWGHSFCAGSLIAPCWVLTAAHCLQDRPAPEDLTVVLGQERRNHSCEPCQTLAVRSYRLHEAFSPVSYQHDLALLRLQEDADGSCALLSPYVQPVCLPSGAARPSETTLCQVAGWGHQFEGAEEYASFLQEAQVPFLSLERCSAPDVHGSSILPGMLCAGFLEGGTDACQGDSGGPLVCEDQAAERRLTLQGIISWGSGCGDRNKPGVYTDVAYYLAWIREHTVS
Method: Determination of Enzyme Selectivity
Human serine protease enzymes plasmin, thrombin, trypsin, Factor Xa and Factor XIIa were assayed for enzymatic activity using an appropriate fluorogenic substrate. Protease activity was measured by monitoring the accumulation of liberated fluorescence from the substrate over 5 minutes. The linear rate of fluorescence increase per minute was expressed as percentage (%) activity. The Km for the cleavage of each substrate was determined by standard transformation of the Michaelis-Menten equation.

Human plasma kallikrein, sequence (P03952 391-638): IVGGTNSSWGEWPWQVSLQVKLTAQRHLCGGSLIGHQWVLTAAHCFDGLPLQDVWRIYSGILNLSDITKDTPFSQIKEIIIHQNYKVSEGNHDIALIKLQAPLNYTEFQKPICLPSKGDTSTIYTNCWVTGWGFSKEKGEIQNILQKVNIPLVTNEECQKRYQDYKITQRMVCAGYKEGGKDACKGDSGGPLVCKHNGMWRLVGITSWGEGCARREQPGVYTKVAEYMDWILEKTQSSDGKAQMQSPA
Human plasma kallikrein, sequence (P03952 20-390 partner): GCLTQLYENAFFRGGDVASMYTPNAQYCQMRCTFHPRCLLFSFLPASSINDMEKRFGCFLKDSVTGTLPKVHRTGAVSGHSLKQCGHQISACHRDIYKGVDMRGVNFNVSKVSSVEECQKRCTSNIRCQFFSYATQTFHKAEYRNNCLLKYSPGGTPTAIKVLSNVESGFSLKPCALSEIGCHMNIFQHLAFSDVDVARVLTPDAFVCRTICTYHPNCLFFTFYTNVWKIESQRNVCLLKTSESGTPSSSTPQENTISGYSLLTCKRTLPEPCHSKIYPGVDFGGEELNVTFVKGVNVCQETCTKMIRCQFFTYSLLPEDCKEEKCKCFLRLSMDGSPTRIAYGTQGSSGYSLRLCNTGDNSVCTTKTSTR

IC50 (Human plasma kallikrein) [µM] | IC50 (Human KLK1) [µM] | IC50 (Factor XIIa) [nM] | SMILES
0.059 | 9.76 | > 10000 | C[C@H]1CCN(c2cc(Cn3cc(C(=O)NCc4ccc5c(N)nccc5c4)c(C(F)(F)F)n3)ccn2)C1 [Example 68, 1-[2-((S)-3-Methyl-pyrrolidin-1-yl)-pyridin-4-ylmethyl]-3-trifluoromethyl-1H-pyrazole-4-carboxylic acid (1-amino-isoquinolin-6-ylmethyl)-amide]
0.00584 | 4 | > 1000 | C[C@H]1CCN(c2ccc(Cn3cc(C(=O)NCc4ccc5c(N)nccc5c4)c(C(F)(F)F)n3)cn2)C1 [Example 59, 1-[6-((S)-3-Methyl-pyrrolidin-1-yl)-pyridin-3-ylmethyl]-3-trifluoromethyl-1H-pyrazole-4-carboxylic acid (1-amino-isoquinolin-6-ylmethyl)-amide]
9.46 | 9.46 | > 10000 | CCn1c(C(=O)NCc2ccc3c(N)nccc3c2)cc(C)c1Cc1ccc(Cn2ccccc2=O)cc1 [Example 6, 1-Ethyl-4-methyl-5-[4-(2-oxo-2H-pyridin-1-ylmethyl)-benzyl]-1H-pyrrole-2-carboxylic acid (1-amino-isoquinolin-6-ylmethyl)-amide]
3.06 | 18.6 | > 40000 | Nc1nccc2cc(CNC(=O)c3cnn(CCc4ccc5c(c4)OCCO5)c3)ccc12 [Example 45, 1-[2-(2,3-Dihydro-benzo[1,4]dioxin-6-yl)-ethyl]-1H-pyrazole-4-carboxylic acid (1-amino-isoquinolin-6-ylmethyl)-amide]
0.3 | > 40 | > 40000 | Nc1nccc2cc(CNC(=O)c3cnn(Cc4cc5cc(OC(F)(F)F)ccc5[nH]4)c3)ccc12 [Example 52, 1-(5-Trifluoromethoxy-1H-indol-2-ylmethyl)-1H-pyrazole-4-carboxylic acid (1-amino-isoquinolin-6-ylmethyl)-amide]
0.82 | 4.32 | > 40000 | Nc1nccc2cc(CNC(=O)c3cnn(Cc4cccc(Oc5ncccc5F)c4)c3)ccc12 [Example 48, 1-[3-(3-Fluoro-pyridin-2-yloxy)-benzyl]-1H-pyrazole-4-carboxylic acid (1-amino-isoquinolin-6-ylmethyl)-amide]
0.186 | 8.09 | > 40000 | Nc1nccc2cc(CNC(=O)c3cnn(Cc4ccc(Oc5ccccn5)cc4)c3)ccc12 [Example 49, 1-[4-(Pyridin-2-yloxy)-benzyl]-1H-pyrazole-4-carboxylic acid (1-amino-isoquinolin-6-ylmethyl)-amide]
0.203 | > 40 | > 40000 | Nc1nccc2cc(CNC(=O)c3cnn(Cc4ccc(COc5cccc(F)n5)cc4)c3)ccc12 [Example 50, 1-[4-(6-Fluoro-pyridin-2-yloxymethyl)-benzyl]-1H-pyrazole-4-carboxylic acid (1-amino-isoquinolin-6-ylmethyl)-amide]
0.0028 | > 10 | > 10000 | Cc1cnn(Cc2ccc(Cn3cc(C(=O)NCc4ccc5c(N)nccc5c4)nn3)cc2)c1 [Example 33, 1-[4-(4-Methyl-pyrazol-1-ylmethyl)-benzyl]-1H-[1,2,3]triazole-4-carboxylic acid (1-amino-isoquinolin-6-ylmethyl)-amide]
0.118 | > 10 | > 10000 | Cc1cnn(Cc2ccc(Cn3cc(C(=O)NCc4cnc5[nH]ccc5c4)c(C4CC4)n3)cc2)c1 [Example 120, 3-Cyclopropyl-1-[4-(4-methyl-pyrazol-1-ylmethyl)-benzyl]-1H-pyrazole-4-carboxylic acid (1H-pyrrolo[2,3-b]pyridin-5-ylmethyl)-amide]
0.562 | > 10 | > 10000 | Cc1cnn(Cc2ccc(Cn3cc(C(=O)NCc4ccc5[nH]c(C)cc5c4)c(C(F)(F)F)n3)cc2)c1 [Example 110, 1-[4-(4-Methyl-pyrazol-1-ylmethyl)-benzyl]-3-trifluoromethyl-1H-pyrazole-4-carboxylic acid (2-methyl-1H-indol-5-ylmethyl)-amide]

Reference: patent publication US9533987B2, “Heterocyclic derivates” (KALVISTA PHARMACEUTICALS LIMITED, priority 2013, dated 2017)
